Results as given in ChEMBL document CHEMBL1629456, “ApoA-I mimetic peptides promote pre-β HDL formation in vivo causing remodeling of HDL and triglyceride accumulation at higher dose” (Bioorg Med Chem, 2010).
Where a SMILES comes first, the peptide text is derived from it. [ ]: non-standard residue; d: D form. Gly(oct-7-en-1-yl) = C=CCCCCCC[C@H](N)C(=O)O; Ala(5-hexenyl) = C=CCCCCC[C@H](N)C(=O)O

These compounds were tested against Phospholipid-transporting ATPase ABCA1 (Mus musculus, UniProt P41233) (assay: Induction of ABCA1-mediated [3H]cholesterol efflux in mouse RAW 264.7 macrophages after 24 hrs).
Sequence of Phospholipid-transporting ATPase ABCA1 (P41233 whole entry): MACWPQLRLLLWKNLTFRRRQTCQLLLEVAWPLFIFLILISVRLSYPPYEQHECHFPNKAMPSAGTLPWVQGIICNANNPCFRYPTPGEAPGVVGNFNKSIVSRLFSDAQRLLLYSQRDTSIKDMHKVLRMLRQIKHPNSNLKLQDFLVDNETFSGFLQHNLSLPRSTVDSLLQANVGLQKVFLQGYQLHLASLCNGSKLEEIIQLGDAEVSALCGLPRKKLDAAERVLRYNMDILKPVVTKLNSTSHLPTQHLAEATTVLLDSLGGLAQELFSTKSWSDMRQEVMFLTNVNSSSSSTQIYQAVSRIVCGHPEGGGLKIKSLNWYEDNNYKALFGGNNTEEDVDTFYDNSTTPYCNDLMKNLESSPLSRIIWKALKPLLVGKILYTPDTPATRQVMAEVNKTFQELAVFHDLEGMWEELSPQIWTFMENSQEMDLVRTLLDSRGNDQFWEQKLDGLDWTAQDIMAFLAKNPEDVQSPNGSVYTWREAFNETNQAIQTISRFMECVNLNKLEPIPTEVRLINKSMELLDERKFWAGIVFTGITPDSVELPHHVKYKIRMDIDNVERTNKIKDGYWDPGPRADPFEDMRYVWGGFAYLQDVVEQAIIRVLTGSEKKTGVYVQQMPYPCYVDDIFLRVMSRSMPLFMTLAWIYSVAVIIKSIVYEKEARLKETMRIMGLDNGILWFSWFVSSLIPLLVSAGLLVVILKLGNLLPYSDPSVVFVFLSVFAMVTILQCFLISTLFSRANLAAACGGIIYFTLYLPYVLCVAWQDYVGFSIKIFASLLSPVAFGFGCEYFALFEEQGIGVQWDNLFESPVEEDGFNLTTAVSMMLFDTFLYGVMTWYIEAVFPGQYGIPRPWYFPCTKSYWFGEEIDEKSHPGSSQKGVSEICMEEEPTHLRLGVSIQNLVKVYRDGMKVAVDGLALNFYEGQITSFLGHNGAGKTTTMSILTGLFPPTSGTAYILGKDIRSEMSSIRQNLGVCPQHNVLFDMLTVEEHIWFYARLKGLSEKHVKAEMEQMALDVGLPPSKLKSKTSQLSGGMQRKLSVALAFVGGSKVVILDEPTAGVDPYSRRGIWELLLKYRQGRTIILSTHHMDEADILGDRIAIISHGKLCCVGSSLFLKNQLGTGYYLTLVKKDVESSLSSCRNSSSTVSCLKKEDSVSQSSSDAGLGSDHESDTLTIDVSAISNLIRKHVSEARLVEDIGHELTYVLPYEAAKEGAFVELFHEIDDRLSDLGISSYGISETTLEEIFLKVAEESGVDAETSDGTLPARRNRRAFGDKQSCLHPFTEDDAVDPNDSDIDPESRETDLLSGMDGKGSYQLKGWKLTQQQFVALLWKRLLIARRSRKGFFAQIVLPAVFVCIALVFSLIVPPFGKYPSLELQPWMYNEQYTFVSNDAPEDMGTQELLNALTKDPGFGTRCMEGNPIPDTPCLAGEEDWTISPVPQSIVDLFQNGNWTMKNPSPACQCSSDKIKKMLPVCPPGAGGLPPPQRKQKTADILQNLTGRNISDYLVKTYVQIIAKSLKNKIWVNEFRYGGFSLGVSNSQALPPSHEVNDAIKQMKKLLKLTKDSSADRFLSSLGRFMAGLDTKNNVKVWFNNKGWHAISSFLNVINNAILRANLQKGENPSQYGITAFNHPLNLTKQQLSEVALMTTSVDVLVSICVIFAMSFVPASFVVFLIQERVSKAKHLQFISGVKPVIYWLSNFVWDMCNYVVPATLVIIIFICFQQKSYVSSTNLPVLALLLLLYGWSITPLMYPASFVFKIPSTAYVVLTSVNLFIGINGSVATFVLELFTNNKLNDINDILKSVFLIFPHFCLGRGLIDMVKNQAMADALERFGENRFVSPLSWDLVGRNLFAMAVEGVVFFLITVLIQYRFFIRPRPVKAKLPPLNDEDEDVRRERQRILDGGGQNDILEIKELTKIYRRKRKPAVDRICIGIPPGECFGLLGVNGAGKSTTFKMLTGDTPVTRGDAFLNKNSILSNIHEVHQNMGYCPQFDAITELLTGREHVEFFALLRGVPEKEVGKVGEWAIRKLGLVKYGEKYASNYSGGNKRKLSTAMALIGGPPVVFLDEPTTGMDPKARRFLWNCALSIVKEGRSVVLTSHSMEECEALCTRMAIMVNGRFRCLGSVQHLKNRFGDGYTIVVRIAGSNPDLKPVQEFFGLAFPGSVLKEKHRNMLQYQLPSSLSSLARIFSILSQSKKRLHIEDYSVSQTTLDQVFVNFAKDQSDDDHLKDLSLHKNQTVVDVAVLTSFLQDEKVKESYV
C=CCCC[C@@H](NC(=O)[C@H](CCC(=O)O)NC(=O)[C@H](CC(N)=O)NC(=O)[C@H](CC(C)C)NC(=O)[C@H](CCCCN)NC(=O)[C@H](CCC(=O)O)NC(=O)[C@H](CCCNC(=N)N)NC(=O)[C@H](Cc1ccccc1)NC(=O)[C@H](CCC(=O)O)NC(=O)[C@H](CC(=O)O)NC(=O)[C@H](CC(C)C)NC(=O)[C@@H](NC(=O)[C@@H]1CCCN1C(C)=O)C(C)C)C(=O)N[C@@H](CC(C)C)C(=O)N[C@@H](CCC(=O)O)C(=O)N[C@@H](C)C(=O)N[C@@H](CC(C)C)C(=O)N[C@@H](CCCCN)C(=O)N[C@@H](CCC(N)=O)C(=O)N[C@@H](CCCCN)C(=O)N[C@@H](CC(C)C)C(=O)N[C@@H](CCCCN)C(N)=O was tested, and the EC50 was > 100 µM.
C=CCCCCC[C@H](NC(=O)[C@H](CCC(N)=O)NC(=O)[C@H](CCCCN)NC(=O)[C@H](CC(C)C)NC(=O)[C@H](C)NC(=O)[C@H](CCC(=O)O)NC(=O)[C@H](CC(C)C)NC(=O)[C@H](CCCCCC=C)NC(=O)[C@H](CCC(=O)O)NC(=O)[C@H](CC(N)=O)NC(=O)[C@H](CC(C)C)NC(=O)[C@H](CCCCN)NC(=O)[C@H](CCC(=O)O)NC(=O)[C@H](CCCNC(=N)N)NC(=O)[C@H](CCCCCC=C)NC(=O)[C@H](CCC(=O)O)NC(=O)[C@H](CC(=O)O)NC(=O)[C@H](CC(C)C)NC(=O)[C@H](CCCCCC=C)NC(=O)[C@@H]1CCCN1C(C)=O)C(=O)N[C@@H](CC(C)C)C(=O)N[C@@H](CCCCN)C(N)=O (Ac-P[Ala(5-hexenyl)]LDE[Ala(5-hexenyl)]REKLNE[Ala(5-hexenyl)]LEALKQ[Ala(5-hexenyl)]LK-NH2) showed an EC50 of 6.7 µM.
Work on C=CCCCCCC[C@H](NC(=O)[C@H](CCC(=O)O)NC(=O)[C@H](CC(N)=O)NC(=O)[C@H](CC(C)C)NC(=O)[C@H](CCCCN)NC(=O)[C@H](CCC(=O)O)NC(=O)[C@H](CCCN=C(N)N)NC(=O)[C@H](Cc1ccccc1)NC(=O)[C@H](CCC(=O)O)NC(=O)[C@H](CC(=O)O)NC(=O)[C@H](CC(C)C)NC(=O)[C@@H](NC(=O)[C@@H]1CCCN1C(C)=O)C(C)C)C(=O)N[C@@H](CC(C)C)C(=O)N[C@@H](CCC(=O)O)C(=O)N[C@@H](C)C(=O)N[C@@H](CC(C)C)C(=O)N[C@@H](CCCCN)C(=O)N[C@@H](CCC(N)=O)C(=O)N[C@@H](CCCCN)C(=O)N[C@@H](CC(C)C)C(=O)N[C@@H](CCCCN)C(N)=O (Ac-PVLDEFREKLNE[Gly(oct-7-en-1-yl)]LEALKQKLK-NH2) yielded an EC50 of 0.7 µM.
In the case of C=CCCCCC[C@H](NC(=O)[C@H](CCC(=O)O)NC(=O)[C@H](CCC(=O)O)NC(=O)[C@H](CC(N)=O)NC(=O)[C@H](CC(C)C)NC(=O)[C@H](CCCCN)NC(=O)[C@H](CCC(=O)O)NC(=O)[C@H](CCCNC(=N)N)NC(=O)[C@H](Cc1ccccc1)NC(=O)[C@H](CCC(=O)O)NC(=O)[C@H](CC(=O)O)NC(=O)[C@H](CC(C)C)NC(=O)[C@@H](NC(=O)[C@@H]1CCCN1C(C)=O)C(C)C)C(=O)N[C@@H](CCC(=O)O)C(=O)N[C@@H](C)C(=O)N[C@@H](CC(C)C)C(=O)N[C@@H](CCCCN)C(=O)N[C@@H](CCC(N)=O)C(=O)N[C@@H](CCCCN)C(=O)N[C@@H](CC(C)C)C(=O)N[C@@H](CCCCN)C(N)=O, the EC50 is reported as > 100 µM.
C=CCCCCC[C@H](NC(=O)[C@H](CCCCN)NC(=O)[C@H](CCC(=O)O)NC(=O)[C@H](CCCNC(=N)N)NC(=O)[C@H](Cc1ccccc1)NC(=O)[C@H](CCC(=O)O)NC(=O)[C@H](CC(=O)O)NC(=O)[C@H](CC(C)C)NC(=O)[C@@H](NC(=O)[C@@H]1CCCN1C(C)=O)C(C)C)C(=O)N[C@@H](CC(N)=O)C(=O)N[C@@H](CCC(=O)O)C(=O)N[C@@H](CCC(=O)O)C(=O)N[C@@H](CC(C)C)C(=O)N[C@@H](CCC(=O)O)C(=O)N[C@@H](C)C(=O)N[C@@H](CC(C)C)C(=O)N[C@@H](CCCCN)C(=O)N[C@@H](CCC(N)=O)C(=O)N[C@@H](CCCCN)C(=O)N[C@@H](CC(C)C)C(=O)N[C@@H](CCCCN)C(N)=O was tested, and the EC50 was > 100 µM.
C=CCCCC[C@H](NC(=O)[C@H](CCC(=O)O)NC(=O)[C@H](CCCN=C(N)N)NC(=O)[C@H](Cc1ccccc1)NC(=O)[C@H](CCC(=O)O)NC(=O)[C@H](CC(=O)O)NC(=O)[C@H](CC(C)C)NC(=O)[C@@H](NC(=O)[C@@H]1CCCN1C(C)=O)C(C)C)C(=O)N[C@@H](CC(C)C)C(=O)N[C@@H](CC(N)=O)C(=O)N[C@@H](CCC(=O)O)C(=O)N[C@@H](CCC(=O)O)C(=O)N[C@@H](CC(C)C)C(=O)N[C@@H](CCC(=O)O)C(=O)N[C@@H](C)C(=O)N[C@@H](CC(C)C)C(=O)N[C@@H](CCCCN)C(=O)N[C@@H](CCC(N)=O)C(=O)N[C@@H](CCCCN)C(=O)N[C@@H](CC(C)C)C(=O)N[C@@H](CCCCN)C(N)=O was tested, and the EC50 was > 100 µM.
For C=CCCCC[C@H](NC(=O)[C@H](C)NC(=O)[C@H](CCC(=O)O)NC(=O)[C@H](CC(C)C)NC(=O)[C@H](CCC(=O)O)NC(=O)[C@H](CCC(=O)O)NC(=O)[C@H](CC(N)=O)NC(=O)[C@H](CC(C)C)NC(=O)[C@H](CCCCN)NC(=O)[C@H](CCC(=O)O)NC(=O)[C@H](CCCNC(=N)N)NC(=O)[C@H](Cc1ccccc1)NC(=O)[C@H](CCC(=O)O)NC(=O)[C@H](CC(=O)O)NC(=O)[C@H](CC(C)C)NC(=O)[C@@H](NC(=O)[C@@H]1CCCN1C(C)=O)C(C)C)C(=O)N[C@@H](CCCCN)C(=O)N[C@@H](CCC(N)=O)C(=O)N[C@@H](CCCCN)C(=O)N[C@@H](CC(C)C)C(=O)N[C@@H](CCCCN)C(N)=O, the EC50 was > 100 µM.
For C=CCCCCC[C@@H](NC(=O)[C@H](C)NC(=O)[C@H](CCC(=O)O)NC(=O)[C@H](CC(C)C)NC(=O)[C@H](CCC(=O)O)NC(=O)[C@H](CCC(=O)O)NC(=O)[C@H](CC(N)=O)NC(=O)[C@H](CC(C)C)NC(=O)[C@H](CCCCN)NC(=O)[C@H](CCC(=O)O)NC(=O)[C@H](CCCN=C(N)N)NC(=O)[C@H](Cc1ccccc1)NC(=O)[C@H](CCC(=O)O)NC(=O)[C@H](CC(=O)O)NC(=O)[C@H](CC(C)C)NC(=O)[C@@H](NC(=O)[C@@H]1CCCN1C(C)=O)C(C)C)C(=O)N[C@@H](CCCCN)C(=O)N[C@@H](CCC(N)=O)C(=O)N[C@@H](CCCCN)C(=O)N[C@@H](CC(C)C)C(=O)N[C@@H](CCCCN)C(N)=O, the EC50 was > 100 µM.
For C=CCCCCCC[C@H](NC(=O)[C@H](CCC(=O)O)NC(=O)[C@H](CC(N)=O)NC(=O)[C@H](CC(C)C)NC(=O)[C@H](CCCCN)NC(=O)[C@H](CCC(=O)O)NC(=O)[C@H](CCCN=C(N)N)NC(=O)[C@H](CCCCCCC=C)NC(=O)[C@H](CCC(=O)O)NC(=O)[C@H](CC(=O)O)NC(=O)[C@H](CC(C)C)NC(=O)[C@@H](NC(=O)[C@@H]1CCCN1C(C)=O)C(C)C)C(=O)N[C@@H](CC(C)C)C(=O)N[C@@H](CCC(=O)O)C(=O)N[C@@H](C)C(=O)N[C@@H](CC(C)C)C(=O)N[C@@H](CCCCN)C(=O)N[C@@H](CCC(N)=O)C(=O)N[C@@H](CCCCN)C(=O)N[C@@H](CC(C)C)C(=O)N[C@@H](CCCCN)C(N)=O (Ac-PVLDE[Gly(oct-7-en-1-yl)]REKLNE[Gly(oct-7-en-1-yl)]LEALKQKLK-NH2), the EC50 was 0.4 µM.
For C=CCCCCC[C@H](NC(=O)[C@H](C)NC(=O)[C@H](CCC(=O)O)NC(=O)[C@H](CC(C)C)NC(=O)[C@H](CCC(=O)O)NC(=O)[C@H](CCC(=O)O)NC(=O)[C@H](CC(N)=O)NC(=O)[C@H](CC(C)C)NC(=O)[C@H](CCCCN)NC(=O)[C@H](CCC(=O)O)NC(=O)[C@H](CCCNC(=N)N)NC(=O)[C@H](Cc1ccccc1)NC(=O)[C@H](CCC(=O)O)NC(=O)[C@H](CC(=O)O)NC(=O)[C@H](CC(C)C)NC(=O)[C@@H](NC(=O)[C@@H]1CCCN1C(C)=O)C(C)C)C(=O)N[C@@H](CCCCN)C(=O)N[C@@H](CCC(N)=O)C(=O)N[C@@H](CCCCN)C(=O)N[C@@H](CC(C)C)C(=O)N[C@@H](CCCCN)C(N)=O, the EC50 was > 100 µM.
For C=CCCCC[C@H](NC(=O)[C@@H](NC(=O)[C@@H]1CCCN1C(C)=O)C(C)C)C(=O)N[C@@H](CC(=O)O)C(=O)N[C@@H](CCC(=O)O)C(=O)N[C@@H](Cc1ccccc1)C(=O)N[C@@H](CCCNC(=N)N)C(=O)N[C@@H](CCC(=O)O)C(=O)N[C@@H](CCCCN)C(=O)N[C@@H](CC(C)C)C(=O)N[C@@H](CC(N)=O)C(=O)N[C@@H](CCC(=O)O)C(=O)N[C@@H](CCC(=O)O)C(=O)N[C@@H](CC(C)C)C(=O)N[C@@H](CCC(=O)O)C(=O)N[C@@H](C)C(=O)N[C@@H](CC(C)C)C(=O)N[C@@H](CCCCN)C(=O)N[C@@H](CCC(N)=O)C(=O)N[C@@H](CCCCN)C(=O)N[C@@H](CC(C)C)C(=O)N[C@@H](CCCCN)C(N)=O, the EC50 was > 100 µM.
For C=CCCCCC[C@H](NC(=O)[C@H](CCC(=O)O)NC(=O)[C@H](CC(N)=O)NC(=O)[C@H](CC(C)C)NC(=O)[C@H](CCCCN)NC(=O)[C@H](CCC(=O)O)NC(=O)[C@H](CCCNC(=N)N)NC(=O)[C@H](Cc1ccccc1)NC(=O)[C@H](CCC(=O)O)NC(=O)[C@H](CC(=O)O)NC(=O)[C@H](CC(C)C)NC(=O)[C@@H](NC(=O)[C@@H]1CCCN1C(C)=O)C(C)C)C(=O)N[C@@H](CC(C)C)C(=O)N[C@@H](CCC(=O)O)C(=O)N[C@@H](C)C(=O)N[C@@H](CC(C)C)C(=O)N[C@@H](CCCCN)C(=O)N[C@@H](CCC(N)=O)C(=O)N[C@@H](CCCCN)C(=O)N[C@@H](CC(C)C)C(=O)N[C@@H](CCCCN)C(N)=O (Ac-PVLDEFREKLNE[Ala(5-hexenyl)]LEALKQKLK-NH2), the EC50 was 2.4 µM.
In the case of C=CCCCCC[C@@H](NC(=O)[C@H](CCC(=O)O)NC(=O)[C@H](CCCNC(=N)N)NC(=O)[C@H](Cc1ccccc1)NC(=O)[C@H](CCC(=O)O)NC(=O)[C@H](CC(=O)O)NC(=O)[C@H](CC(C)C)NC(=O)[C@@H](NC(=O)[C@@H]1CCCN1C(C)=O)C(C)C)C(=O)N[C@@H](CC(C)C)C(=O)N[C@@H](CC(N)=O)C(=O)N[C@@H](CCC(=O)O)C(=O)N[C@@H](CCC(=O)O)C(=O)N[C@@H](CC(C)C)C(=O)N[C@@H](CCC(=O)O)C(=O)N[C@@H](C)C(=O)N[C@@H](CC(C)C)C(=O)N[C@@H](CCCCN)C(=O)N[C@@H](CCC(N)=O)C(=O)N[C@@H](CCCCN)C(=O)N[C@@H](CC(C)C)C(=O)N[C@@H](CCCCN)C(N)=O, the EC50 is reported as > 100 µM.
In the case of C=CCCCC[C@H](NC(=O)[C@@H]1CCCN1C(C)=O)C(=O)N[C@@H](CC(C)C)C(=O)N[C@@H](CC(=O)O)C(=O)N[C@@H](CCC(=O)O)C(=O)N[C@@H](Cc1ccccc1)C(=O)N[C@@H](CCCN=C(N)N)C(=O)N[C@@H](CCC(=O)O)C(=O)N[C@@H](CCCCN)C(=O)N[C@@H](CC(C)C)C(=O)N[C@@H](CC(N)=O)C(=O)N[C@@H](CCC(=O)O)C(=O)N[C@@H](CCC(=O)O)C(=O)N[C@@H](CC(C)C)C(=O)N[C@@H](CCC(=O)O)C(=O)N[C@@H](C)C(=O)N[C@@H](CC(C)C)C(=O)N[C@@H](CCCCN)C(=O)N[C@@H](CCC(N)=O)C(=O)N[C@@H](CCCCN)C(=O)N[C@@H](CC(C)C)C(=O)N[C@@H](CCCCN)C(N)=O, the EC50 is reported as > 100 µM.
